Measurements taken from BindingDB's records for doi:10.1016/j.bmcl.2007.12.029 (Merck Research Laboratories, 2008).

Test: Antagonist activity at CCR2 receptor in human monocytes assessed as inhibition of MCP1-mediated chemotaxis

IC50 | Structure (SMILES)
2 nM | CC(C)(O)[C@]1(C(=O)NCc2cc(C(F)(F)F)cc(C(F)(F)F)c2)CC[C@@H](N2CCC(c3cncnc3)CC2)C1 [(1S,3R)-N-(3,5-bis(trifluoromethyl)benzyl)-1-(2-hydroxypropan-2-yl)-3-(4-(pyrimidin-5-yl)piperidin-1-yl)cyclopentanecarboxamide]
2 nM | CC(C)[C@]1(C(=O)NCc2cc(C(F)(F)F)cc(C(F)(F)F)c2)CC[C@@H](N2CCC(c3cncnc3)CC2)C1 [N-(3,5-bis(trifluoromethyl)benzyl)-1-isopropyl-3-(4-(pyrimidin-5-yl)piperidin-1-yl)cyclopentanecarboxamide]
